Assay results: paper PMC2229537 (The Journal of General Physiology, 2002)
Values joined by “and” are separate entries in the source; they are usually repeats but may differ in a detail not shown here. Equal entries are not always repeated.

Key:
[1] = test system: adult human receptor; conditions: resting closed state; ref Ohno et al., 1996; Wang et al., 1999; cited from earlier work
[2] = test system: EP AChRs of CMS patient (εD175N and εN182Y); assay: Patch-clamp recordings of ACh-elicited channel currents from patient endplates; type: cell-based, human; conditions: −80 mV
[3] = test system: Torpedo receptor; conditions: resting closed state; ref Sine et al., 1990; cited from earlier work
[4] = test system: fetal mouse receptor; conditions: resting closed state; ref Zhang et al., 1995; cited from earlier work
[5] = target: wild-type AChR (Homo sapiens, UniProt P02708+Q04844+Q07001); type: binding; conditions: 100 μM proadifen
wild-type AChR, sequence (P02708 21-457): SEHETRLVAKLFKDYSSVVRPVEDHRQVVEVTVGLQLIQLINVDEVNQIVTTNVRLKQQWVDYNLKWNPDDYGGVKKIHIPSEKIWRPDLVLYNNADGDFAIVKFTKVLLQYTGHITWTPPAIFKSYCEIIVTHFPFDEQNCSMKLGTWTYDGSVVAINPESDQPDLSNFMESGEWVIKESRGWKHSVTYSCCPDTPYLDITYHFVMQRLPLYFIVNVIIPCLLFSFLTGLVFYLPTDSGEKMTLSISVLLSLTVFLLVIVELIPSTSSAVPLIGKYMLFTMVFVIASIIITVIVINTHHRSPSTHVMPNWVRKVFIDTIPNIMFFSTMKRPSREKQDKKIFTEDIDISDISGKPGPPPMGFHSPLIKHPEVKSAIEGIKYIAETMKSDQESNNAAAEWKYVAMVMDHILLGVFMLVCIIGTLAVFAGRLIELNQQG
wild-type AChR, sequence (P11230 24-501 partner): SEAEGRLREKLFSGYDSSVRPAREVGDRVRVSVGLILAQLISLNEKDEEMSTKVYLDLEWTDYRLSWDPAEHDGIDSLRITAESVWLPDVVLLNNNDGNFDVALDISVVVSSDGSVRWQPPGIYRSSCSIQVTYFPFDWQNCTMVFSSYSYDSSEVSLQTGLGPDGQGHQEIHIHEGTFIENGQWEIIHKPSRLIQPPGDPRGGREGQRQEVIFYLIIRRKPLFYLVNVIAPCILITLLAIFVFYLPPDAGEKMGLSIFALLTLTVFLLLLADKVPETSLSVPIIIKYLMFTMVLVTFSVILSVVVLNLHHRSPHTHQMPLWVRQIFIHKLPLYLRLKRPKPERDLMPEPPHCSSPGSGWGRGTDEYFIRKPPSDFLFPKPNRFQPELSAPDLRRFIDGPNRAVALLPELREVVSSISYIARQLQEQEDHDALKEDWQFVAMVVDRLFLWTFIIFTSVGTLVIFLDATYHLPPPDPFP
wild-type AChR, sequence (Q07001 22-517): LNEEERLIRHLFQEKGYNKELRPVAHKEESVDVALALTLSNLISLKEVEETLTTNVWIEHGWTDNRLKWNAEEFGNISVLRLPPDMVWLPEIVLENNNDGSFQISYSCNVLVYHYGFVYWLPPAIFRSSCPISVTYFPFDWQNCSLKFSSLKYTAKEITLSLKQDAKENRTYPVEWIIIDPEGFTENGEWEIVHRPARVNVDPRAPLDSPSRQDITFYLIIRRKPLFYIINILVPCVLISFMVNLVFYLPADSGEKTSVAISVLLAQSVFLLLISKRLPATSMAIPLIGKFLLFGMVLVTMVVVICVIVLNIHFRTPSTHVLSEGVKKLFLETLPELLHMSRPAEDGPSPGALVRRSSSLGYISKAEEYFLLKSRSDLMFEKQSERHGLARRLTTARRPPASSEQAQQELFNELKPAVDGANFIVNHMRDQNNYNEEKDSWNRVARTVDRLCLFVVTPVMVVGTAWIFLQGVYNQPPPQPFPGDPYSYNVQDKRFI
wild-type AChR, sequence (Q04844 21-493): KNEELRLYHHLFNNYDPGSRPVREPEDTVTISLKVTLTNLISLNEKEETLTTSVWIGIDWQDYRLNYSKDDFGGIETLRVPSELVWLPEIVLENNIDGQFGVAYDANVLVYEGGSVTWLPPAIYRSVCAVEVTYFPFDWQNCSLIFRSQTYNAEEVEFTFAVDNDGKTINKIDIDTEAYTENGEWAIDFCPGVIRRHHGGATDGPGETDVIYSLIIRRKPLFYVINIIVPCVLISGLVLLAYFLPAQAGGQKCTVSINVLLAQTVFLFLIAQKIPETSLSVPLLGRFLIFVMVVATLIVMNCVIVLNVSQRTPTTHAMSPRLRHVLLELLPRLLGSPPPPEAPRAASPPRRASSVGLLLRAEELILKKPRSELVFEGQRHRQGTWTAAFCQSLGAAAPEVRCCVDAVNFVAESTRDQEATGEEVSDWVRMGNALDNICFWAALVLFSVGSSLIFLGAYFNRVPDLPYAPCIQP

[6] = ACh 5 μM, 8 kHz, 22°C, mean ± SE, four EPs

Row | Compound | difference in ACh affinity for the two sites [1] | Bursts τ1 [2, 6] [ms] | Bursts τ2 [2, 6] | Bursts, area of τ1 component [2, 6] | Bursts, area of τ2 component [2, 6] | Open intervals τ1 [2, 6] [ms] | Open intervals τ2 [2, 6] [ms] | Open intervals, area of τ1 component [2, 6] | Open intervals, area of τ2 component [2, 6] | burst duration time constant τ1 ([2]; Fig. 1 histogram, one patient, 5 μM ACh) | difference in ACh affinity for the two sites [3] [fold] | difference in ACh affinity for the two sites [4] [fold] | increase of ACh affinity in the presence of proadifen [5] [fold]
1 | CC(=O)OCC[N+](C)(C)C [ACh, acetylcholine] | sixfold | 0.17 ± 0.025 | 0.59 ms and 0.59 ± 0.061 ms | 0.61 ± 0.061 | 0.39 ± 0.061 | 0.17 ± 0.021 | 0.51 ± 0.037 | 0.65 ± 0.19 | 0.34 ± 0.096 | 0.185 | ~100 | 32 | –
2 | CCCC(C(=O)OCCN(CC)CC)(c1ccccc1)c1ccccc1 [proadifen] | – | – | – | – | – | – | – | – | – | – | – | – | ~100
